Earlier results as cited in patent US9950112B2 (priority 2010, dated 2018).

Experiments:
[1] = morphine during early resuscitation following serious injuries; reduced from 76%
[2] = propofol concentration, human surgical patients, general anesthesia

| SMILES | incidence of post-traumatic stress disorder (PTSD) [1] | EC50 for awakening [2] | EC50 for orientation [2] |
| --- | --- | --- | --- |
| CN1CC[C@]23c4c5ccc(O)c4O[C@H]2[C@@H](O)C=C[C@H]3[C@H]1C5 [morphine] | 61% | – | – |
| CC(C)c1cccc(C(C)C)c1O [propofol] | – | 1.07 ± 0.13 µg/mL | 0.95 ± 0.19 µg/mL |
